Results published in PMC11930985 (Nature Communications, 2025).
“And” between values parts separate entries of the source, which are not always exact repeats. Equal values may be shown once. Read-outs that look alike come from different tables or passages of the source.

Legend:
[1] = design: method as in Protocol BGBC001; conditions: ref Protocol BGBC001, cited from earlier work
Ret = system: Ret; design: method as in Investigator's Brochure (IB) version 5.0; conditions: ref Investigator's Brochure (IB) version 5.0; cited from earlier work
monkeys = system: monkeys; design: method as in Investigator's Brochure (IB) version 5.0; conditions: 28-day repeat dose; ref Investigator's Brochure (IB) version 5.0; cited from earlier work
Flt4 [2] = system: Flt4; design: method as in Investigator's Brochure (IB) version 5.0; conditions: ref Investigator's Brochure (IB) version 5.0; cited from earlier work
[3] = Bemcentinib plasma PK (LC-MS/MS, population PK model); format: in vivo, human; conditions: for Cmax / AUC / half-life: human, plasma, oral; for Cmax: read-out: mean Cmax at steady state
Description: Thereafter, a pre-dose sample was collected at all study visits ( > Cycle 3 up to and including Cycle 15) and at End of Study. PK samples were measured using a fully validated liquid chromatography with tandem mass spectrometry method for bemcentinib. […] The PopPK model was developed by evaluating various structural models including 1 compartment and 2 compartment models. Covariate analysis was performed using a forward addition and backward elimination procedure, from which a preliminary base model was selected. During covariate analysis, continuous covariates were centered on the median population values, and the most common or most relevant category was used as the reference value for categorical covariates. A visual predictive check (VPC) was conducted to verify that the final model adequately predicted both the central tendency and variability of the observed data across studies or by proton pump inhibitor use. Quantification of parameter uncertainty in the final model was assessed by nonparametric bootstrap analysis. Population PK analysis was performed using the nonlinear mixed effects modelling methodology as implemented in the NONMEM program Version 7.4.4[35]. Data postprocessing was performed using R (Version 3.6.1)[36]. Individual population PK model parameters were estimated using NONMEM with the following $ESTIMATION parameters: METHOD = COND INTERACTION […] = 0 […] = 3. These parameters were subsequently used to predict individual steady-state profiles with a dense PK sampling scheme using the SIMULATION method in NONMEM.

healthy male subjects = system: healthy male subjects; design: method as in Protocol BGBC001; conditions: ref Protocol BGBC001; cited from earlier work
Flt4 [4] = system: Flt4; design: method as in Investigator's Brochure (IB) version 5.0; conditions: ref Investigator's Brochure (IB) version 5.0; cited from earlier work; remark: listed apart in the source

## Nc1nc(Nc2ccc3c(c2)CC[C@@H](N2CCCC2)CC3)nn1-c1cc2c(nn1)-c1ccccc1CCC2 [Bemcentinib]
[1]; single oral dose, healthy subjects
  t1/2: > 24 h
[1]; whole milk and buttered toast
  Estimated increase in exposure with food in some subjects: up to two
Ret
  IC50: > 0.316 µM
monkeys
  Target organs: liver, reticuloendothelial system and haematopoietic system
Flt4 [2]
  IC50: > 1 µM
[3]; DE cohort, maintenance 100 mg daily
  mean Ctrough at steady state: 0.136 ± 0.109 µg/mL
[3]; DE cohort, maintenance 300 mg daily
  mean Ctrough at steady state: 0.382 ± 0.193 µg/mL
[3]; Figure 4, individual patients, concentration paired with maximum pAXL(Y779) inhibition
  bemcentinib concentration: 358 ng/mL and 79 ng/mL and 276 ng/mL and 103 ng/mL and 178 ng/mL and 74 ng/mL and 173 ng/mL and 0 ng/mL and 122 ng/mL and 105 ng/mL and 73.3 ng/mL and 6.36 ng/mL
[3]; LDAC cohort, maintenance 200 mg daily
  mean Ctrough at steady state: 0.196 ± 0.124 µg/mL
[3]; Supplementary Figure 1b, individual patients, concentration paired with maximum pSTAT5 (Y694) inhibition
  bemcentinib concentration: 358 ng/mL and 145 ng/mL and 276 ng/mL and 103 ng/mL and 124 ng/mL and 74 ng/mL and 118 ng/mL and 0 ng/mL and 81.5 ng/mL and 112 ng/mL and 270 ng/mL
[3]; Supplementary Figure 1c, individual patients, concentration paired with maximum pERK1/2 (T202/Y204) inhibition
  bemcentinib concentration: 358 ng/mL and 78.9 ng/mL and 276 ng/mL and 134 ng/mL and 130 ng/mL and 74.6 ng/mL and 118 ng/mL and 0 ng/mL and 98 ng/mL and 94 ng/mL and 73.4 ng/mL and 270 ng/mL
[3]; Supplementary Figure 1d, individual patients, concentration paired with maximum pAKT (S473) inhibition
  bemcentinib concentration: 408 ng/mL and 78.9 ng/mL and 276 ng/mL and 103 ng/mL and 130 ng/mL and 74 ng/mL and 225 ng/mL and 0 ng/mL and 81.5 ng/mL and 183 ng/mL and 73.4 ng/mL and 270 ng/mL
[3]; 100 mg, DE cohort, maintenance 100 mg daily, 10 patients
  Cmax: 0.14 ± 0.11 µg/mL
[3]; 100 mg, DE cohort, maintenance 100 mg daily, read-out: AUC
  AUC: 3.31 ± 2.63 µg·h/mL
[3]; 200 mg daily, LDAC cohort, read-out: median t1/2 (converted)
  half-life: 124 h
[3]; 200 mg, DE cohort, maintenance 200 mg daily, 21 patients
  Cmax: 0.162 ± 0.121 µg/mL
[3]; 200 mg, DE cohort, maintenance 200 mg daily, read-out: AUC
  AUC: 3.81 ± 2.86 µg·h/mL
[3]; 200 mg, LDAC cohort, maintenance 200 mg daily, 35 patients
  Cmax: 0.21 ± 0.128 µg/mL
[3]; 200 mg, LDAC cohort, maintenance 200 mg daily, read-out: mean AUC
  AUC: 4.89 ± 3.02 µg·h/mL
[3]; 300 mg, DE cohort, maintenance 300 mg daily, 5 patients
  Cmax: 0.398 ± 0.2 µg/mL
[3]; 300 mg, DE cohort, maintenance 300 mg daily, read-out: AUC
  AUC: 9.39 ± 4.72 µg·h/mL
[3]; DE cohort, maintenance 100 mg daily, read-out: median half-life (t1/2) (converted)
  half-life: 159 h
[3]; DE cohort, maintenance 200 mg daily, read-out: median half-life (t1/2) (converted)
  half-life: 124 h
[3]; DE cohort, maintenance 300 mg daily, read-out: median half-life (t1/2) (converted)
  half-life: 156 h
Healthy male subjects
  Maximum QTcF recorded (severity): Grade I
Flt4 [4]
  IC50: 0.041 µM
